Laboratory results from the METLIN SMRT retention time set (Domingo-Almenara et al. 2019).

Test: gradient 5% acetonitrile 3 min, to 50% in 2 min, to 85% in 15 min, held 3 min, 100 µL/min
Conditions: column: Zorbax Extend-C18 2.1 x 50 mm; eluents: water / acetonitrile, 0.1% formic acid
Method in brief: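 Retention time was recorded from adduct peaks, which were picked computationally and each inspected manually. Pure standards ran in mixtures of ~100 molecules on HPLC coupled to a quadrupole time-of-flight mass spectrometer, in positive and negative ionization mode, through a Zorbax Extend-C18 column (2.1 × 50 mm, 1.8 μm) at 100 μL/min. Eluents were water and acetonitrile, each with 0.1% formic acid.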

Row | SMILES | RP-LC retention time [s]
1 | CC(=O)N(C)CC(=O)N1CCN(c2cc(C)nc(Nc3ccc(C)cc3)n2)CC1 | 564
2 | O=C(NCCn1nc(-n2cccn2)ccc1=O)c1ccc2nsnc2c1 | 621
3 | O=C(c1nc2nc(-c3ccco3)cc(C(F)(F)F)n2n1)N1CCN(c2ccccn2)CC1 | 630
4 | CN1C(=O)c2cc(C(=O)NCc3ccccc3)nn2CC1(C)C(=O)NC1CCCCC1 (stereo unspecified) | 761
5 | CSc1ccc(CNC(=O)Cn2cc(-c3nnc(C)o3)c3ccccc32)cc1 | 812
6 | O=C(c1csc(C(=O)N2CCCC2)n1)N1CCSCC1 | 700
7 | CC(C)N1C(=O)C(C)(C(=O)N2CCN(c3ccccc3F)CC2)Oc2cccnc21 (stereo unspecified) | 1130
8 | CCN(CC)C(=O)CSc1c(C(C)C)cnc2c1c(=O)n(C)c(=O)n2C | 898
9 | CCC1CCCCN1CCCNC(=O)c1sc2nc3n(c(=O)c2c1C)CCC3 (stereo unspecified) | 598
10 | CC(=O)N1CCN(S(=O)(=O)c2ccc(C(=O)O)cc2)CC1 | 591
11 | COc1ccc(C2=NC3(CCN(C(C)C)CC3)NC(c3ccccc3O)C2)cc1 (stereo unspecified) | 592
12 | CCOC(=O)c1ccccc1NC(=O)NCC(c1cccnc1)c1c[nH]c2ccccc12 (stereo unspecified) | 756
13 | O=C(Nc1nc(-c2ccccn2)cs1)c1ccc(N2CCOCC2)c([N+](=O)[O-])c1 | 631
14 | C=CCN(Cc1nc(-c2cccc(C)c2)no1)C(=O)Nc1ccc(C)cc1 | 1110
15 | Cc1nc(C)c(C(=O)Nc2nc(-c3ccc(Cl)cc3)c(C)s2)s1 | 1060
16 | Cc1ccc(C2Cn3cnc(C(=O)N4CCC(C(=O)NCc5ccco5)CC4)c3CO2)cc1 (stereo unspecified) | 729
17 | Cc1nc(-c2ccc(-c3noc(C(NS(=O)(=O)c4ccccc4)C(C)C)n3)cc2)cs1 (stereo unspecified) | 1120
18 | Cc1cccc(NC(=O)N2CCC(N3CCN(Cc4ccccc4)C(=O)C3=O)CC2)c1C | 730

Further lines, results first:

Row | RP-LC retention time [s] | SMILES
19 | 699 | COc1ccccc1C1C2=C(CC(C)(C)CC2=O)Nc2ccccc2N1C(=O)CCC(=O)O (stereo unspecified)
20 | 846 | CC(C)S(=O)(=O)c1cc2c(cc1NC(=O)c1cccc(F)c1)n(C)c(=O)n2C
21 | 667 | Cc1cc(C)c(S(=O)(=O)Nc2cccc(-c3cn4ccccc4n3)c2)c(C)c1
22 | 802 | CC1=C(c2ccc(F)cc2)S(=O)(=O)N=C1N1CCCN(C(=O)c2ccccc2)CC1
23 | 723 | COCCN1C(=O)CCc2cc(NS(=O)(=O)c3ccc(F)cc3F)ccc21
24 | 932 | Cc1ccc(N2CC(c3noc(-c4ccsc4)n3)CC2=O)cc1 (stereo unspecified)
25 | 703 | CCn1ccc(C(=O)NCC(=O)N2CCCc3ccccc32)n1
26 | 700 | CCC1CCCCN1CCNC(=O)c1sc2cccc(F)c2c1OC (stereo unspecified)
27 | 673 | Cc1cc(-c2nnc(-c3ccc(F)cc3)o2)c(C)n1CC(=O)NCc1ccccn1
28 | 742 | O=C1NC2(CCN(C(=O)Nc3ccc(F)cc3)CC2)Oc2ccccc21
29 | 943 | CCOc1ccc2c(n1)CCN(C(=O)Nc1ccc(CC)cc1)C2
30 | 814 | Cn1c(=O)c(N2CCC(NC(=O)NCc3ccc(F)cc3)CC2)nc2ccccc21
31 | 653 | CCOc1ccc(NC(=O)N(Cc2cccs2)C2CCN(CC)CC2)cc1
32 | 923 | COc1ccc(C(=O)Nc2cnn(C)c(=O)c2N2CCCCC2)cc1
33 | 786 | Cc1cc2c(cc1S(=O)(=O)N1CCC(C(=O)NCc3ccc(Cl)cc3)CC1)OCC(=O)N2
34 | 904 | COc1cccc(NC(=O)Cn2nc3c(Oc4cc(C)cc(C)c4)nccn3c2=O)c1
35 | 620 | Oc1ccc(C2NCCc3c2[nH]c2ccc(Cl)cc32)cc1O (stereo unspecified)
36 | 822 | CCc1ccc(NS(=O)(=O)c2cc(-c3[nH]ncc3C(=O)N3CCCCC3)oc2C)cc1
